Tests used:
[1] = organism: Homo sapiens; test: Compound was tested for inhibition of ADP induced platelet aggregation by using human platelet rich plasma (PRP) assay; assay type: functional
[2] = organism: Homo sapiens; test: Compound was tested for inhibition of ADP induced platelet aggregation by using human platelet rich plasma(PRP) assay; assay type: functional

Row | IC50 [1] [nM] | IC50 [2] [nM] | Structure (SMILES)
1 | 200 | – | CCCCOC(=O)N[C@@H](CNC(=O)c1cc(OCC2CCN(C(=N)N)CC2)no1)C(=O)OC
2 | – | 60 | CCCCOC(=O)N[C@@H](CNC(=O)c1cc(OCc2ccc(C(=N)N)cc2)no1)C(=O)O
3 | – | 50 | CCCCOC(=O)N[C@@H](CNC(=O)c1cc(OCc2ccc(C(=N)N)cc2)no1)C(=O)OC
4 | – | 32 | CCCCOC(=O)N[C@@H](CNC(=O)c1cccc(COc2ccc(C(=N)N)cc2)c1)C(=O)OC

Reference: ChEMBL document CHEMBL1130705, “Synthesis and antiplatelet effects of an isoxazole series of glycoprotein IIb/IIIa antagonists” (Bioorg Med Chem Lett, 1998)
